Data as given in PMC11489226 (Archives of Toxicology, 2024).

Experiments:
HEK293CYP2A6 cells [1] = assay: MTT assay in HEK293CYP2A6 cells; assay type: cell-based, human; settings: for Concentration from which the fraction of cell viability affected (FA) increased: HEK293CYP2A6 cells, MTT; for IC50: Homo sapiens, HEK293CYP2A6 cell line, read-out: IC50 (MTT, cell viability / metabolic activity); for PCB concentration at which the difference between HEK293 cells and CYP2A6 transgenic cells becomes statistically significant: MTT assay, Fig. 2
Method: For the determination of metabolic activity, HEK293 cells as well as transgenic HEK293CYP2A6 and HEK293CYP2C9 cells were plated into 96-well flat-bottomed microtiter plates (Becton Dickinson, Heidelberg, Germany) at a density of 1 × 10^5 cells in 100 μL of media. Cells were allowed to grow for 24 h geneticin free before PCBs were added. Controls included cells grown in medium with and without ethanol (maximal 1% (vol/vol)) added. After 48 h, the ability of remaining viable cells to transform 3-(4,5-dimethylthiazol-2-yl)-2,5-diphenyltetrazolium bromide (MTT) into formazan was assessed (MTT Cell Proliferation Assay, ATCC, Manassas, USA). The absorbance of the samples was measured on a Microplate Reader (FLUOstar, BMG Labtech, Ortenberg, Germany) at 450 nm.

HEK293CYP2A6 cells [2] = assay: Neutral comet assay in HEK293CYP2A6 cells; assay type: cell-based, human; settings: for Comet assay: percentage of tail DNA / DNA damage above background: 20 or 30 µM
Method: (§1) For neutral comet assays, transgenic CYP2A6 and transgenic CYP2C9 cells were treated with parent PCBs for 5 h. After treatments, 50 μL of a suspension of 10^5 cells/mL were washed in PBS and resuspended in 500 μL of preheated agarose (37 °C). The agarose/cell suspensions were applied to microscopic slides and left for 30 min at 4 °C to allow gel polymerization. After cell lysis using a commercial buffer (Trevigen, Gaithersburg, USA), single-cell gel electrophoresis was performed at 1 V/cm for 1 h. After precipitation of the DNA with ammonium acetate, samples were fixed in 70% ethanol for 30 min and dried. To visualize dsDNA, SYBR™ Green I Nucleic Acid Gel Stain (Invitrogen, Carlsbad, USA) was used. Pictures of at least 50 cells/section were taken using a fluorescence microscope (DMRX, Leica: 450–490 nm BP- filter, 40 × magnification). The extent of the genotoxic effect of PCBs was calculated using the ImageJ-based OpenComet software.

HEK293CYP2A6 cells [3] = assay: Micronucleus assay in HEK293CYP2A6 cells; assay type: cell-based, human; settings: HEK293CYP2A6 cells; 20 and 30 µM, 24 h
Method: (§2) Transgenic HEK293CYP2A6 and HEK293CYP2C9 cells were cultured in T25 flasks, with a seeding density of 1 × 10^6 cells per flask at 37 °C with 5% CO2. Cells were allowed to grow for 24 h geneticin free before PCBs were added (20 µM or 30 µM). Controls included cells grown in the presence of 1% ethanol (vol/vol) (negative control) or […] 4-nitroquinoline 1-oxide (positive control). Following further incubation for 24 h, cells were synchronized by adding Cytochalasin B. Subsequently, cells were harvested by trypsinization, centrifuged (2,000g, 10 min), and washed with DPBS (Dulbecco’s PBS). For hypotonic shock, 4 °C cold potassium chloride solution was added to the cells under agitation. Cells were completely resuspended and incubated at room temperature for 5 min. After centrifugation (2,500g, 10 min), the supernatant was discarded. To fix the cells, they were treated with a methanol/acetic acid solution (− 20 °C), with a minimum incubation time of 15 min at room temperature. Following centrifugation (2,500g, 10 min), the supernatant was discarded, and the fixation process was repeated at least three times. Finally, the samples were dissolved in 1 mL of fixative solution and incubated overnight at 4 °C. For analysis, two to three drops from each sample were placed on a glass slide, with intermittent heating of the slide. Subsequently, the cells were visualized with acridine orange, and using a fluorescence microscope (Leica DM6000B, Filter I3 450–490 nm), 2,000 cells per sample were counted.

HEK293CYP2C9 cells [4] = assay: Micronucleus assay in HEK293CYP2C9 cells; assay type: cell-based, human; settings: 20 and 30 µM, 24 h
Method: as §2

HEK293CYP2A6 cells [5] = assay: Light microscopic evaluation of HEK293CYP2A6 cells; assay type: cell-based, human; settings: 24 h of incubation (data not shown)
[6] = PCB concentrations in plasma of HELPcB participants (2010); assay type: in vivo, human; settings: human, plasma, other: occupational exposure, sample of 2010
fish cells = tested on: fish cells; set-up: method as in Marabini et al. [2011]; settings: ref Marabini et al. [2011]; cited from earlier work
human lung fibroblast = tested on: human lung fibroblast; set-up: method as in Hashmi et al. [2015]; settings: higher concentrations compared to lower concentrations; ref Hashmi et al. [2015]; cited from earlier work
CYP2A6 = target: T1, CYP2A6 (Homo sapiens, UniProt P11509); assay: Urinary 1,7-dimethyluric acid/paraxanthine metabolic ratio after caffeine (CYP2A6 phenotyping); settings: urine, 0–360 min after 50 mg caffeine oral; ten PCB-exposed subjects
T1 sequence (P11509 1-494): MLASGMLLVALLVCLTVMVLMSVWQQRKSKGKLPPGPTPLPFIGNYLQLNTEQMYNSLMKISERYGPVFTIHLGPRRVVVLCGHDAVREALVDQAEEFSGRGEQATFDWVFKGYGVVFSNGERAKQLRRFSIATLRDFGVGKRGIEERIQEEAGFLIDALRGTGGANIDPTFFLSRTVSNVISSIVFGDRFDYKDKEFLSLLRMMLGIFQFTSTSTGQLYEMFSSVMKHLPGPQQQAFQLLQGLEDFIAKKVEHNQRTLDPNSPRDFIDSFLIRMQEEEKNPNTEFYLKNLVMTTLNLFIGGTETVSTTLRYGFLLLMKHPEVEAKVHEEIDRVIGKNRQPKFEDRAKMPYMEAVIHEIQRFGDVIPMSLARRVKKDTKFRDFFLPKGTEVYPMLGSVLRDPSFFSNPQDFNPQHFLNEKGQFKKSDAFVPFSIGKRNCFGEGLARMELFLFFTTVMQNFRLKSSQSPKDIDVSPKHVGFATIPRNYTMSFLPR
From the text: Ten subjects with prior occupational exposure to PCBs and ten controls were included into a clinical CYP phenotyping cocktail study at the Institute for Occupational, Social and Environmental Medicine, University Hospital RWTH Aachen. PCB-exposed participants were reinvited from the HELPcB (Health Effects in High-Level Exposure to PCB) medical surveillance program. […] Subjects were allowed to consume non-caffeinated beverages and received a meal 3 following the administration of the drug cocktail. Concentrations of the test compounds and their CYP-mediated metabolites were measured using LC–MS, with urine sampling over 24 h with 5 time points at 1,2,4,6, and 24 h after drug cocktail intake. […] Urine samples were weighed during sampling.
20 µL urine or calibrators and quality controls in Sigmatrix urine diluent (SAE0074-1L, Sigma-Aldrich) were protein precipitated with 80 µL methanol including 1000 ng/mL internal standards caffeine-d9, paraxanthine-d6, and 1,7-dimethyluric acid-d3. Samples were briefly vortexed and centrifuged for 5 min at 17,000g and 4 °C. […] Caffeine and paraxanthine were detected in positive ion mode and 1,7-dimethyluric acid in negative ion mode. […] The metabolic ratio for 1,7-dimethyluric acid/paraxanthine was calculated based on the measured urine concentrations. […]

[7] = tested on: Salmonella typhimurium strains; set-up: method as in Wyndham et al. [1976]; settings: PCB52 and its primary metabolites; ref Wyndham et al. [1976]; cited from earlier work
mouse fibroblasts = tested on: mouse fibroblasts; set-up: method as in Stadnicki et al. [1979]; settings: ref Stadnicki et al. [1979]; cited from earlier work
human lymphocytes [8] = tested on: human lymphocytes; set-up: method as in Stadnicki et al. [1979]; settings: ref Stadnicki et al. [1979]; cited from earlier work
human lymphocytes [9] = tested on: human lymphocytes; set-up: method as in Sargent et al. [1989]; settings: ref Sargent et al. [1989]; cited from earlier work
bone marrow and liver = tested on: bone marrow and liver; set-up: method as in Sargent et al. [1992]; settings: ref Sargent et al. [1992]; cited from earlier work
HEK293CYP2C9 cells [10] = assay: Neutral comet assay in HEK293CYP2C9 cells; assay type: cell-based, human; settings: HEK293CYP2C9 control cells; 20 or 30 µM
Method: as §1

Row | Structure (SMILES) | Concentration from which the fraction of cell viability affected (FA) increased (HEK293CYP2A6 cells [1]) | IC50 (HEK293CYP2A6 cells [1]) | PCB concentration at which the difference between HEK293 cells and CYP2A6 transgenic cells becomes statistically significant (HEK293CYP2A6 cells [1]) | DNA damage classified according to the comet scale (percentage of tail DNA) (HEK293CYP2A6 cells [2]; 20 µM) | DNA damage classified according to the comet scale (percentage of tail DNA) (HEK293CYP2A6 cells [2]; 30 µM) | Comet assay: percentage of tail DNA / DNA damage above background (HEK293CYP2A6 cells [2]) | Percentages of micronuclei (HEK293CYP2A6 cells [3]) | Percentages of micronuclei (HEK293CYP2C9 cells [4]) | Light microscopic evaluation: type of effect (HEK293CYP2A6 cells [5]) | concentration at 2010 calendar year ([6]; HELPcB participant AD) | concentration at 2010 calendar year ([6]; HELPcB participant AE) | concentration at 2010 calendar year ([6]; HELPcB participant eight) | concentration at 2010 calendar year ([6]; HELPcB participant five) | concentration at 2010 calendar year ([6]; HELPcB participant four) | concentration at 2010 calendar year of sampling ([6]; HELPcB participant one) | concentration at 2010 calendar year ([6]; HELPcB participant seven) | concentration at 2010 calendar year ([6]; HELPcB participant six) | concentration at 2010 calendar year ([6]; HELPcB participant three) | concentration at 2010 calendar year of sampling ([6]; HELPcB participant two) | further results
1 | Clc1ccc(Cl)c(-c2cc(Cl)c(Cl)cc2Cl)c1 [PCB101, 2,2′,4,5,5′-pentachlorobiphenyl] | 20 µM | 34.8 µM | 60 µM | high damage | moderate damage | DNA damage was also seen | approximately threefold elevated | inactive | cytostatic effects (proliferation arrest) | 0.073 ng/mL | 0.005 ng/mL | 0.005 ng/mL | 0.111 ng/mL | 0.005 ng/mL | 0.519 ng/mL | 0.03 ng/mL | 0.227 ng/mL | 0.078 ng/mL | 0.005 ng/mL | Genotoxicity compared with etoposide (comet assay) (HEK293CYP2A6 cells [2]; etoposide 10 µm positive control): more potent than of etoposide; DNA strand breaks (fish cells): induce; Micronucleus formation (fish cells): induce; Genotoxicity (human lung fibroblast): increased significantly
2 | Cn1c(=O)[nH]c2[nH]c(=O)n(C)c2c1=O [1,7-DMU, 1,7-dimethyluric acid] | – | – | – | – | – | – | – | – | – | – | – | – | – | – | – | – | – | – | – | Logarithmically transformed metabolic ratio of 1,7-DMU and paraxanthine, median (CYP2A6): 0.4
3 | Clc1ccc(Cl)c(-c2cc(Cl)ccc2Cl)c1 [PCB52, 2,2′,5,5′-tetrachlorobiphenyl] | 20 µM | 26.2 µM | 40 µM | low damage | low damage | not | diminished effect | indistinguishable effects | cytostatic effects (proliferation arrest) | 0.026 ng/mL | 0.005 ng/mL | 0.005 ng/mL | 0.031 ng/mL | 0.005 ng/mL | 0.348 ng/mL | 0.021 ng/mL | 0.043 ng/mL | 0.04 ng/mL | 0.005 ng/mL | Mutagenic activity [7]: did not exhibit mutagenic activity; DNA strand breaks (mouse fibroblasts): positive or weakly positive; DNA strand breaks (human lymphocytes [8]): positive or weakly positive; Sister chromatid exchange (human lymphocytes [9]): negative; Chromosomal aberrations in vivo (bone marrow and liver): absence of chromosomal aberrations
4 | Clc1ccc(-c2ccc(Cl)cc2Cl)cc1 [PCB28, 2,4,4′-trichlorobiphenyl] | 10 µM | 27 µM | 40 µM | moderate damage | moderate damage | concentration-dependent increase | – | inactive | primarily cytotoxic effects (cell death) | 0.823 ng/mL | 1.48 ng/mL | 0.1 ng/mL | 0.21 ng/mL | 0.023 ng/mL | 2.69 ng/mL | 0.051 ng/mL | 0.309 ng/mL | 0.999 ng/mL | 0.019 ng/mL | Comet assay: increase in percentage of tail DNA (HEK293CYP2C9 cells [10]): not evident
